Consider five compounds from patent US20090252672A1, “NASAL DELIVERY OF THERAPEUTIC AGENTS USING TIGHT JUNCTION AGONISTS” (priority 2006, published 2009).

Read-outs that look alike come from different tables or passages of the source.

One data set in a line: in vitro. Particulars: human, Caco-2.
Data set [1] has as its target T1, protease activated receptor-2 (PAR-2) receptor (Mus musculus, UniProt P55086).
T1 construct: Intracolonic infusion of a 5 μg dose of the PAR-2 agonist, SLIGRL
T1 sequence (P55086 26-399): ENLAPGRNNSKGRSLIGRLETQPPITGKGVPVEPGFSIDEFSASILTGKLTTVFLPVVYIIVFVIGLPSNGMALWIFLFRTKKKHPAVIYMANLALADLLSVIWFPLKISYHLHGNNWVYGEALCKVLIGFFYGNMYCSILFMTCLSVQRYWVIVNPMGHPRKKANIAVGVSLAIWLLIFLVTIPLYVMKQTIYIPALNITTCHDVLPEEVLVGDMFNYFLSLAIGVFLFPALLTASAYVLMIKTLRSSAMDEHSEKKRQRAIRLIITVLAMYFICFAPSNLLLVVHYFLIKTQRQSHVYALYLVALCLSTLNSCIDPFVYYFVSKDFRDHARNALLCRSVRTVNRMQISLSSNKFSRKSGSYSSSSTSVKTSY
Particulars: intracolonic infusion of a 5 μg dose; cited from earlier work.

The test system of the next data set is Caco-2 cell monolayers. Particulars: ZOT 0.22 to 0.89×10^−10 mol/ml, across Caco-2 cell monolayers; cited from earlier work.
Data set [2] can be described thus: Intranasal administration of [3H]-AZT or [3H]-saquinavir with AT1002, uptake into blood plasma.
Experimental: Blood samples (250 μl) were drawn into heparinized syringes at 10 or 15 min into polypropylene tubes, centrifuged (13,000 rpm for 10 min) immediately and plasma was obtained. Scintillation cocktail was added and samples were analyzed for radioactivity by Beckman Coulter LS 6500 multi-purpose Scintillation counter.
In a volume of 20 μl, 120 μCi/kg of [^3H]-AZT was administered to FVB mice of 20-25 g each. Other FVB mice received the same amount of AZT administered in the presence of AT1002(2 mg/kg). Blood samples were taken at 10 or 15 minutes.
[hu 3H]-Saquinavir (120 μCi/kg) was administered in a 20 μl volume intranasally to FVB mice in the absence or presence of AT1002 (5 mg/kg).
A short description of data set [3]: Intra-nasal administration of salmon calcitonin (sCT) with or without AT1002, plasma sCT by LC-MS. The format is in vivo, Sprague-Dawley rats. Particulars: for Tmax: 15 mg/kg. The method, then: Jugular cannulated Sprague-Dawley rats randomly received formulations of salmon calcitonin. The formulations administered intra-nasally to rats were dextrose solution of sCT (15 mg/kg) with or without various doses of AT1002 (2, 5, and 10 mg/kg). Doses were then slowly administered intra-nasally with a volume dose of 400 μl kg rat. Blood samples were drawn via the jugular cannula at each time point, and were deproteinized by the addition of acetonitrile. The concentration of sCT in the plasma was determined by LC-MS.

Data set [4] in a line: Intranasal administration of [14C] PEG4000 or [14C] inulin with/without AT1002, plasma concentration. It is filed as in vivo, Sprague-Dawley rats. Particulars: inulin with AT1002 10 mg/kg, p<0.05. The source says: Male Sprague-Dawley rats cannulated in the jugular vein were randomly assigned to receive radiolabelled paracellular markers, [^14C] PEG4000 or [^14C] inulin, with/without AT1002, for each intranasal study.

Where [5] appears, read: sCT 15 mg/kg intra-nasal with 10 mg/kg of AT1002, p<0.05.

Experimental for in vitro: Caco-2 cells, a human colon adenocarcinoma cell line, were grown as monolayers for 21 days in Dulbecco's Modified Eagle's medium (1X) containing 10% fetal bovine serum, 1% non-essential amino acid solution, 1% penicillin-streptomycin and 2% glutamine at 37° C. in an atmosphere of 5% CO2 and 90% relative humidity. Caco-2 cells from passage numbers of 51 to 52 were seeded on permeable polycarbonate inserts (1 cm^2, 0.4 μm pore size) in 12 Transwell plates at a density of 80,000 cells/cm^2. The inserts were fed with media every other day until they were used for experiments 21 days after the initial seeding. The integrity of the cell monolayers was evaluated by measuring the transepithelial electrical resistance (TEER) values before the study using a Millicell®-ERS meter (Millipore Corp., Bedford, Mass.) with chopstick electrodes. […] The cell monolayers were washed twice with PBS prior to the transport experiments. After the wash, the plates were incubated for 30 min at 37° C., and the integrity of the cell monolayers was evaluated by measurement of TEER. The cell inserts were used in transport experiments when the TEER values reached >300 Ωcm^2.
The insert was moved to a well containing fresh PBS every 10 min for 40 min.
Papp was calculated according to the following equation: […]
The percent enhancement ratio, ER(%), for the Papp was calculated from the formula, […]

In turn, `OC[C@@H](O)[C@@H](O)[C@H](O)[C@H](O)CO` [Mannitol] yielded a Papp in the data set “in vitro” of 0.686 ± 0.057 ×10⁻⁶ cm/s.
Take SLIGRL: in data set [1], the “increase in the paracellular permeability of [51Cr]-EDTA” value was 2 fold.
Take “ZOT: 44.8 kDa protein (399 amino acids) of Vibrio cholerae that reversibly opens tight junctions”: the “enhanced transport of agents of varying molecular weights or low bioavailability” value in the data set on Caco-2 cell monolayers is listed as “up to 30 fold”.
Consider H-FCIGRL-OH [AT1002, H-FCIGRL-OH], for which, in data set [2] ([3H]-AZT 120 μCi/kg intranasal, AT1002 2 mg/kg co-administered, blood at 10 or 15 min, vs AZT alone, p<0.05), the “increase of AZT levels in plasma” value is reported as “about 33%”. The “increase of saquinavir levels in plasma” value in data set [2] ([3H]-saquinavir 120 μCi/kg intranasal, in presence of AT1002 5 mg/kg vs absence) is “about 51%”. The “increase of plasma concentration of sCT vs sCT control” value in data set [3] (at 20 min, sCT 15 mg/kg intra-nasal with 10 mg/kg of AT1002, p<0.05) stood at 1.99 fold. In data set [3] (setting [5]), the “increase in sCT AUC0-90min to sCT control” value is 1.66 fold and the “increase in sCT Cmax to sCT control” value turned out to be 1.67 fold. Besides, in data set [4], the “inulin AUC0-360min, increase over control” value is given as 292% and the “inulin Cmax, increase over control” value was 315%.
As to `CC(C)C[C@H](NC(=O)[C@H](CCCCN)NC(=O)CNC(=O)[C@H](CC(C)C)NC(=O)[C@@H](NC(=O)[C@@H]1CSSC[C@H](N)C(=O)N[C@@H](CO)C(=O)N[C@@H](CC(N)=O)C(=O)N[C@@H](CC(C)C)C(=O)N[C@@H](CO)C(=O)N[C@@H]([C@@H](C)O)C(=O)N1)C(C)C)C(=O)N[C@@H](CO)C(=O)N[C@@H](CCC(N)=O)C(=O)N[C@@H](CCC(=O)O)C(=O)N[C@@H](CC(C)C)C(=O)N[C@@H](Cc1c[nH]cn1)C(=O)N[C@@H](CCCCN)C(=O)N[C@@H](CC(C)C)C(=O)N[C@@H](CCC(N)=O)C(=O)N[C@H](C(=O)N[C@@H](Cc1ccc(O)cc1)C(=O)N1CCC[C@H]1C(=O)N[C@@H](CCCNC(=N)N)C(=O)N[C@H](C(=O)N[C@@H](CC(N)=O)C(=O)N[C@H](C(=O)NCC(=O)N[C@@H](CO)C(=O)NCC(=O)N[C@H](C(=O)N1CCC[C@H]1C(N)=O)[C@@H](C)O)[C@@H](C)O)[C@@H](C)O)[C@@H](C)O` [sCT only, Salmon calcitonin], the Tmax in data set [3] (Sprague-Dawley, rat, plasma, inhaled or intranasal, sCT 15 mg/kg intra-nasal alone (control), mean ± SEM, read-out: sCT Tmax (converted)) is 32.5 min; in data set [3] (Sprague-Dawley, rat, plasma, inhaled or intranasal, sCT 15 mg/kg intra-nasal, sCT only (FIG. 7), read-out: Tmax of average plasma concentration profile of sCT (converted)), 30 min. Further, the peak concentration (Cmax) in data set [3] (Sprague-Dawley, rat, plasma, inhaled or intranasal, sCT 15 mg/kg intra-nasal alone (control), mean ± SEM) stood at 1230 ± 250 ng/mL. Also, in data set [3] (Sprague-Dawley, rat, plasma, inhaled or intranasal, sCT 15 mg/kg intra-nasal alone (control), mean ± SEM, n=3-5, read-out: sCT AUC0-90 min (converted)), the AUC(0-t) was 997 ng·h/mL.

As usually defined, the Papp is a coefficient for how fast a substance crosses the barrier. A higher Papp goes with fast passage. In general, Cmax refers to the peak of the concentration-time curve.
